How the values were obtained:
[1] = target: Beta-3 adrenergic receptor (Homo sapiens, UniProt P13945); experiment: Agonist activity at human cloned beta3 adrenergic receptor expressed in CHO cells assessed as cAMP accumulation; format: functional, cell-based
Homo sapiens = species: Homo sapiens; experiment: Ratio of EC50 for human cloned beta-1 adrenergic receptor to EC50 for human cloned beta3 adrenergic receptor
[2] = target: Beta-1 adrenergic receptor (Homo sapiens, UniProt P08588)
Chain of Beta-1 adrenergic receptor (P08588 whole entry): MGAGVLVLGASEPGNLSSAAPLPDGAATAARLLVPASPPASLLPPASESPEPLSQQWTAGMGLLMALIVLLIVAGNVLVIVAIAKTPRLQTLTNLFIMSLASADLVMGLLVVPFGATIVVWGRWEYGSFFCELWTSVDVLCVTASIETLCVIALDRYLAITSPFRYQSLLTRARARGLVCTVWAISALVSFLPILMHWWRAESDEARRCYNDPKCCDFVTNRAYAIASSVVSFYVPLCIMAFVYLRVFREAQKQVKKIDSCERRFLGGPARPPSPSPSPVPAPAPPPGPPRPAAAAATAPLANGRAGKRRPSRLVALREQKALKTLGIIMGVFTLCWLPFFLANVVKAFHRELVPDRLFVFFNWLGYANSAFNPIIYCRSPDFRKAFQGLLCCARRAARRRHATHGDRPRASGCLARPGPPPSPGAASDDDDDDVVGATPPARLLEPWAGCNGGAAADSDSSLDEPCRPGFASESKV
Description: Agonist activity at human cloned beta-1 adrenergic receptor expressed in CHO cells assessed as cAMP accumulation

Chain of Beta-3 adrenergic receptor (P13945 whole entry): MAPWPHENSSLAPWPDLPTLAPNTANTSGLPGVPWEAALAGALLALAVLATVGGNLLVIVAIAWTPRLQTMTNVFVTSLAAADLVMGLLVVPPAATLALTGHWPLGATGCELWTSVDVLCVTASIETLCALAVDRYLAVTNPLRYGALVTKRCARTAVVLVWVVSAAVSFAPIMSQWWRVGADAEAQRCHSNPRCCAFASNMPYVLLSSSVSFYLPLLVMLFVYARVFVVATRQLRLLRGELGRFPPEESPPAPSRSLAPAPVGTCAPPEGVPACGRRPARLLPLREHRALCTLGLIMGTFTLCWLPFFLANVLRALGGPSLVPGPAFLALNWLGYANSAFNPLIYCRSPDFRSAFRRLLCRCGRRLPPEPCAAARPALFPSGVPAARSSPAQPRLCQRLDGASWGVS

EC50 [1] | Ratio EC50 (Homo sapiens) | EC50 [2] | SMILES
0.81 nM | 802 | 650 nM | O=C(O)c1ccc(-c2ccc3c(c2)C[C@@H](NC[C@H](O)c2ccc(Cl)cc2)CC3)cc1F
13 nM | > 77 | > 1000 nM | O=C(O)c1ccc(-c2ccc3c(c2)C[C@@H](NC[C@H](O)c2cccnc2)CC3)cc1
49 nM | > 2 | > 100 nM | O=C(O)c1cccnc1Oc1ccc2c(c1)C[C@@H](NC[C@H](O)c1cccc(Cl)c1)CC2
> 100 nM |  | > 100 nM | O=C(O)c1ccc(Oc2ccc3c(c2)C[C@@H](NC[C@H](O)c2cccc(Cl)c2)CCC3)cc1
2.4 nM | > 417 | > 1000 nM | O=C(O)c1ccc(-c2ccc3c(c2)C[C@@H](NC[C@H](O)c2cccc(Cl)c2)CC3)s1
29 nM | > 3.4 | > 100 nM | O=C(O)c1cccc(-c2ccc3c(c2)C[C@@H](NC[C@H](O)c2cccc(Cl)c2)CC3)c1
9 nM | > 111 | > 1000 nM | Cc1ccc(Oc2ccc3c(c2)C[C@@H](NC[C@H](O)c2cccc(Cl)c2)CC3)cc1C(=O)O
10 nM | > 10 | > 100 nM | O=C(O)COc1cccc(-c2ccc3c(c2)C[C@@H](NC[C@H](O)c2cccc(Cl)c2)CC3)c1
37 nM | > 2.7 | > 100 nM | O=C(O)c1ccc(Oc2ccc3c(c2)C[C@@H](NC[C@H](O)c2cccc(Cl)c2)CC3)cc1
> 100 nM |  | > 100 nM | O=C(O)c1ccc(-c2ccc3c(c2)C[C@@H](NC[C@H](O)c2cccc(Cl)c2)CCC3)cc1
1.8 nM | 458 | 825 nM | Cc1cc(-c2ccc3c(c2)C[C@@H](NC[C@H](O)c2ccc(Cl)cc2)CC3)ccc1C(=O)O
16 nM | > 62 | > 1000 nM | O=C(O)c1cc(Oc2ccc3c(c2)C[C@@H](NC[C@H](O)c2cccc(Cl)c2)CC3)ccc1Cl
1.8 nM | 155 | 270 nM | CN(C)c1cc(Oc2ccc3c(c2)C[C@@H](NC[C@H](O)c2ccc(Cl)nc2)CC3)cc(C(=O)O)c1
22 nM | > 4.5 | > 100 nM | O=C(O)COc1cccc(Oc2ccc3c(c2)C[C@@H](NC[C@H](O)c2cccc(Cl)c2)CC3)c1
4.8 nM | 69 | 330 nM | O=C(O)c1cccc(Oc2ccc3c(c2)C[C@@H](NC[C@H](O)c2ccc(Cl)cc2)CC3)c1
28 nM | > 36 | > 1000 nM | N#Cc1ccc([C@@H](O)CN[C@H]2CCc3ccc(-c4ccc(C(=O)O)cc4)cc3C2)cc1
33 nM | > 30 | > 1000 nM | O=C(O)c1ccc(-c2ccc3c(c2)C[C@@H](NC[C@H](O)c2ccc(Cl)c(Cl)c2)CC3)cc1
38 nM | 16.3 | 620 nM | O=C(O)c1ccc(-c2ccc3c(c2)C[C@@H](NC[C@H](O)c2ccccc2Cl)CC3)cc1
24 nM | > 4.2 | > 100 nM | O=C(O)COc1ccc(Oc2ccc3c(c2)C[C@@H](NC[C@H](O)c2cccc(Cl)c2)CC3)cc1

SMILES | EC50 [1] | Ratio EC50 (Homo sapiens) | EC50 [2]
O=C(O)c1cc(NC2CCCCC2)cc(Oc2ccc3c(c2)C[C@@H](NC[C@H](O)c2cccc(Cl)c2)CC3)c1 | 0.78 nM | 88 | 69 nM
O=C(O)c1ccc(-c2ccc3c(c2)C[C@@H](NC[C@H](O)c2cccc(Cl)c2)CC3)nc1 | 9.6 nM | 51 | 490 nM
CCCNc1cc(Oc2ccc3c(c2)C[C@@H](NC[C@H](O)c2cccc(Cl)c2)CC3)cc(C(=O)O)c1 | 0.77 nM | 224 | 173 nM
CC(C)Oc1cc(-c2ccc3c(c2)C[C@@H](NC[C@H](O)c2ccc(Cl)cc2)CC3)ccc1C(=O)O | 0.7 nM | 443 | 310 nM
O=C(O)c1cccc(Oc2ccc3c(c2)C[C@@H](NC[C@H](O)c2ccc(Cl)nc2)CC3)c1 | 4.1 nM | 34 | 140 nM

Reference: ChEMBL document CHEMBL1155947, “Discovery of a novel series of benzoic acid derivatives as potent and selective human beta3 adrenergic receptor agonists with good oral bioavailability. 3. Phenylethanolaminotetraline (PEAT) skeleton containing biphenyl or biphenyl ether moiety” (J Med Chem, 2008)
